Source: publication PMC8409965, “Three-component Castagnoli-Cushman reaction with ammonium acetate delivers 2-unsubstituted isoquinol-1-ones as potent inhibitors of poly(ADP-ribose) polymerase (PARP)” (Journal of Enzyme Inhibition and Medicinal Chemistry, 2021)
Read-outs that look alike come from different tables or passages of the source.

Key:
PARP2 [1] = molecular target: T1, PARP2 (Homo sapiens, UniProt Q9UGN5); parameters: method as in PMID 34482781; settings: values greater than 1.0 indicate selectivity towards PARP2; cited from earlier work
T1 construct: purchased BPS Bioscience (San Diego, CA)

PARP1 [2] = molecular target: T2, PARP1 (Homo sapiens, UniProt P09874); experiment: PARP1 colorimetric activity assay kit (BPS Bioscience); format: biochemical; settings: dose-response, mean ± SD, n = 3
T2 construct: purchased BPS Bioscience (San Diego, CA)

PARP2 [3] = molecular target: T1, PARP2; experiment: PARP2 colorimetric activity assay kit (BPS Bioscience); format: biochemical; settings: for IC50: dose-response, mean ± SD, n = 3; for SI (selectivity index) IC50(PARP1)/IC50(PARP2): values greater than 1.0 indicate selectivity towards PARP2
PARP1 [4] = molecular target: T2, PARP1; experiment: PARP1 colorimetric activity assay kit (BPS Bioscience); format: biochemical; settings: 1 µM concentration of the inhibitor, mean ± SD, n = 3
Description: The initial screening was performed against PARP1 at 1 µM concentration of each compound, in triplicate (n = 3) measurements.

[5] = Stability in the presence of human liver microsomes; format: in vitro ADME
[6] = Stability in the presence of hepatic S9 fraction; format: in vitro ADME
Plasma protein binding = format: in vitro ADME
[7] = Stability in human plasma; format: in vitro ADME; settings: after incubation (4 h) with human plasma
[8] = Solubility in pH 7.4 phosphate buffer; format: physicochemical; settings: aqueous buffer; pH 7.4 0.01 M phosphate buffer solution

T2 sequence (P09874 whole entry): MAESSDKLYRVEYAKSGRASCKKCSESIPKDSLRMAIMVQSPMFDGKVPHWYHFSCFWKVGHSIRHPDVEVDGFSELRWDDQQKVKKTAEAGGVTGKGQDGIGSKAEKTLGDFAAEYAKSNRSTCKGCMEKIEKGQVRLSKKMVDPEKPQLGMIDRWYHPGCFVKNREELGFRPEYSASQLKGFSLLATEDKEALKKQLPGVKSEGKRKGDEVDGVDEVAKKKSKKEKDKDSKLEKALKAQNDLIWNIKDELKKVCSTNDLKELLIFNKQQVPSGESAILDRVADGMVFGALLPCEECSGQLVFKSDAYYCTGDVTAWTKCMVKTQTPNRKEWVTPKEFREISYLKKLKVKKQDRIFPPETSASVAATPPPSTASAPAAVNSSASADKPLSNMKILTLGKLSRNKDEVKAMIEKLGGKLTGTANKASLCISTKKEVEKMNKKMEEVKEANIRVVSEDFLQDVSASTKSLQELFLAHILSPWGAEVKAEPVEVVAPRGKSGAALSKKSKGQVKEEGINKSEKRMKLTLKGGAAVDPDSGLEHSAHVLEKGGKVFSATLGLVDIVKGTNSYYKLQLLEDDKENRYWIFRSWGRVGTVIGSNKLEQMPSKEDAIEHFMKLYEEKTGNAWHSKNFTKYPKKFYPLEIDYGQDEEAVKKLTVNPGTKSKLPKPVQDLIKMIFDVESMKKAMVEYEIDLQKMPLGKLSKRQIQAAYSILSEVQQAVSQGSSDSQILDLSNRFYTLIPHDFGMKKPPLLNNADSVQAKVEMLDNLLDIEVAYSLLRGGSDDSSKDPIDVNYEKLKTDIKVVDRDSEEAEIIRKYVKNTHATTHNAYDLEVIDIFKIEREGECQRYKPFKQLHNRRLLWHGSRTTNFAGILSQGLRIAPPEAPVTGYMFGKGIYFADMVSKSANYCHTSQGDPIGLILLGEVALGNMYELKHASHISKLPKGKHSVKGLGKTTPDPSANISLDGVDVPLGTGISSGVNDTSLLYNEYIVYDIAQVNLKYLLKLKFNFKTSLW
T1 sequence (Q9UGN5 whole entry): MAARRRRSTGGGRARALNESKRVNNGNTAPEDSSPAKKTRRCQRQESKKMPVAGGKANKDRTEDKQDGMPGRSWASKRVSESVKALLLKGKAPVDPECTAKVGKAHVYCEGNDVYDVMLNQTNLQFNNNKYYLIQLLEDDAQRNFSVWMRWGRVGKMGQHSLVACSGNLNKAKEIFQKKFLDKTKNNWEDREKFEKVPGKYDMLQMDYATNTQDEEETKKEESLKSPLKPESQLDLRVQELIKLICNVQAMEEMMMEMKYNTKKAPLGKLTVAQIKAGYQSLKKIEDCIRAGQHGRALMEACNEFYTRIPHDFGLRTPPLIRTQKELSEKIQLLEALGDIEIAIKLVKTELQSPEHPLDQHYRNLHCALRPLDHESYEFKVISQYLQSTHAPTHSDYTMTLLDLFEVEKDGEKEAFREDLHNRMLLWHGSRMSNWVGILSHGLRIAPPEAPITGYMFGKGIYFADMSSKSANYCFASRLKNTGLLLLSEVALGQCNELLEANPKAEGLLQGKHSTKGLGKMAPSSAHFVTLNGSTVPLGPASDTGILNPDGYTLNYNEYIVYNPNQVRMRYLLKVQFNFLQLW

IC50 (PARP1 [2]) | IC50 (PARP2 [3]) | SI (selectivity index) IC50(PARP1)/IC50(PARP2) (PARP2 [3]) | inhibition at 1 µM (PARP1 [4]) | Compound | other results
87.9 ± 10.2 nM | 69.5 ± 12.8 nM | 1.26 | – | O=C1N[C@H](c2ccccc2)[C@@H](C(=O)N2CCC(N3CCCCC3)CC2)c2ccccc21 [Compound 2a] | –
55.4 ± 8.8 nM | 39.9 ± 7.3 nM | 1.39 | – | O=C1N[C@H](c2ccc(F)cc2)[C@@H](C(=O)N2CCC(N3CCCCC3)CC2)c2ccccc21 [Compound 2b] | –
44.6 ± 5.6 nM | 11 ± 2.2 nM | 4.05 | – | CC[C@H]1NC(=O)c2ccccc2[C@@H]1C(=O)N1CCC(N2CCCCC2)CC1 [Compound 2c] | –
160 ± 18.6 nM | – | – | – | CC(C)[C@H]1NC(=O)c2ccccc2[C@@H]1C(=O)N1CCC(N2CCCCC2)CC1 [Compound 2d] | –
26.4 ± 4.1 nM | 18.3 ± 4.5 nM | 1.44 | – | O=C1N[C@H](C2CC2)[C@@H](C(=O)N2CCC(N3CCCCC3)CC2)c2ccccc21 [Compound 2e] | –
– | – | – | 24.1 ± 6% | CC(C)(C)[C@H]1NC(=O)c2ccccc2[C@@H]1C(=O)N1CCC(N2CCCCC2)CC1 [Compound 2f] | –
95.7 ± 17.7 nM | 29.2 ± 3.4 nM | 3.28 | – | C[C@H]1NC(=O)c2ccccc2[C@@H]1C(=O)N1CCC(N2CCCCC2)CC1 [Compound 2m] | –

Further lines, the compound ahead of its results:

Compound | IC50 (PARP1 [2]) | IC50 (PARP2 [3]) | SI (selectivity index) IC50(PARP1)/IC50(PARP2) (PARP2 [3]) | inhibition at 1 µM (PARP1 [4]) | other results
O=C1NCC(C(=O)N2CCC(N3CCCCC3)CC2)c2ccccc21 (stereo not shown) [Compound 1a] | – | – | – | – | SI (selectivity index) IC50(PARP1)/IC50(PARP2) (PARP2 [1]): 2.23
CC(C)C[C@H]1NC(=O)c2ccccc2[C@@H]1C(=O)N1CCC(N2CCCCC2)CC1 [Compound 2g] | 87 ± 8.3 nM | 105 ± 20.8 nM | 0.83 | – | –
CC1(C)NC(=O)c2ccccc2[C@@H]1C(=O)N1CCC(N2CCCCC2)CC1 [Compound 2h] | – | – | – | 4 ± 7.4% | –
O=C1NC2(CCCCC2)[C@@H](C(=O)N2CCC(N3CCCCC3)CC2)c2ccccc21 [Compound 2i] | – | – | – | 12.1 ± 7.2% | –
O=C1NC2(CCOCC2)[C@@H](C(=O)N2CCC(N3CCCCC3)CC2)c2ccccc21 [Compound 2j] | – | – | – | 5.1 ± 6.6% | –
O=C1NC2(CCCC2)[C@@H](C(=O)N2CCC(N3CCCCC3)CC2)c2ccccc21 [Compound 2k] | – | – | – | 10.6 ± 9.7% | –
O=C1N[C@H](C2CCCC2)[C@@H](C(=O)N2CCC(N3CCCCC3)CC2)c2ccccc21 [Compound 2l] | > 500 nM | > 500 nM | – | – | –
O=C1NC(C2CC2)C(C(=O)N2CCC(N3CCCCC3)CC2)c2ccc(F)cc21 (stereo not shown) [Compound 6, 4-([1,4′-bipiperidine]-1′-carbonyl)-3-cyclopropyl-7-fluoro-3,4-dihydroisoquinolin-1(2H)-one] | 22 ± 3.2 nM | 4.3 ± 0.5 nM | 5.1 | – | Stability HLM [5]: 3.8 µL/min/mg; Stability S9 [6]: 0.1 µL/min/mg; PPB (plasma protein binding) (Plasma protein binding): 71.0 % bound; Stability Plasma (% compound remaining) [7]: 100%; solubility [8]: > 100 µM
O=C(c1cc(Cc2n[nH]c(=O)c3ccccc23)ccc1F)N1CCN(C(=O)C2CC2)CC1 [Olaparib, reference compound] | – | – | – | – | Stability HLM [5]: 15 µL/min/mg; Stability S9 [6]: 1.1 µL/min/mg; PPB (plasma protein binding) (Plasma protein binding): 90.2 % bound; Stability Plasma (% compound remaining) [7]: 100%; solubility [8]: > 100 µM
